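How tested: cells in 96-well plates exposed to compound for 48 hours at five concentrations. Here, GI50 denotes the concentration required for 50% inhibition of growth.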 Calls of active or inactive are those of the source. No stated cut-off is given here; in the data, active = GI50 up to about 1.1 µM and inactive = higher.
What was measured:
Experiment in all cases: DTP human tumour cell line panel, 48 h
KM-20L2 = tested on: KM-20L2
SK-MEL-2 = tested on: SK-MEL-2
CAKI-1 = tested on: CAKI-1
DLD-1 = tested on: DLD-1
SNB-78 = tested on: SNB-78
ACHN = tested on: ACHN
K562 = tested on: K562
LXFL 529 = tested on: LXFL 529
HOP-18 = tested on: HOP-18
SR = tested on: SR
HOP-92 = tested on: HOP-92
OVCAR-5 = tested on: OVCAR-5
OVCAR-4 = tested on: OVCAR-4
DMS-114 = tested on: DMS-114
A549 = tested on: A549
NCI/ADR-RES = tested on: NCI/ADR-RES
PC-3 = tested on: PC-3
MDA-MB-231 = tested on: MDA-MB-231
MDA-MB-435 = tested on: MDA-MB-435
T47D = tested on: T47D

SMILES	GI50 (KM-20L2)	GI50 (SK-MEL-2)	GI50 (CAKI-1)	GI50 (DLD-1)	GI50 (SNB-78)	GI50 (ACHN)	GI50 (K562)	GI50 (LXFL 529)	GI50 (HOP-18)	GI50 (SR)	GI50 (HOP-92)	GI50 (OVCAR-5)	GI50 (OVCAR-4)	GI50 (DMS-114)	GI50 (A549)	GI50 (NCI/ADR-RES)	GI50 (PC-3)	GI50 (MDA-MB-231)	GI50 (MDA-MB-435)	GI50 (T47D)
O=C1NC2OCC(O)C(O1)C2O (stereo not given)	> 100 µM (inactive)	> 100 µM (inactive)	> 100 µM (inactive)	> 100 µM (inactive)	> 100 µM (inactive)	> 100 µM (inactive)	> 100 µM (inactive)	> 100 µM (inactive)	> 100 µM (inactive)	> 100 µM (inactive)	> 100 µM (inactive)	> 100 µM (inactive)	> 100 µM (inactive)	> 100 µM (inactive)						
CCCCc1c2cnccc2c(CCCC)c2c1[nH]c1ccccc12	13.6 µM (inactive)	12.6 µM (inactive)	5.9 µM (inactive)	9.1 µM (inactive)	25.2 µM (inactive)	10 µM (inactive)	3.54 µM (inactive)	11.4 µM (inactive)	3.59 µM (inactive)		12.8 µM (inactive)	44.9 µM (inactive)	8.99 µM (inactive)	3.99 µM (inactive)	12.1 µM (inactive)					
C=C1CCC2[C@@H](CCC3[C@]2(C)CCC[C@]3(C)C(=O)OC)C1CCO (stereo not given in full)	9.66 µM (inactive)	15.1 µM (inactive)	12.1 µM (inactive)	14.2 µM (inactive)	16.3 µM (inactive)	14.8 µM (inactive)	6 µM (inactive)	8.89 µM (inactive)	16 µM (inactive)		7.08 µM (inactive)	14.9 µM (inactive)	12.8 µM (inactive)	5.11 µM (inactive)	14.4 µM (inactive)					
COc1ccc(C2C3C(=O)C=CC(=O)C3[C@@H]2C)cc1OC (stereo not given in full)	> 100 µM (inactive)	> 100 µM (inactive)	> 100 µM (inactive)	> 100 µM (inactive)	> 100 µM (inactive)	47.6 µM (inactive)	62.7 µM (inactive)	42.4 µM (inactive)	> 100 µM (inactive)		> 100 µM (inactive)	> 100 µM (inactive)	> 100 µM (inactive)	56.5 µM (inactive)	> 100 µM (inactive)					
CCCCCCCCCCCC(=O)OCC(C[As](=O)(O)O)OC(=O)CCCCCCCCCCC (stereo not given)	5.66 µM (inactive)	3.92 µM (inactive)	9.27 µM (inactive)	15.8 µM (inactive)	2.82 µM (inactive)	2.24 µM (inactive)	5.32 µM (inactive)	2.06 µM (inactive)	3.93 µM (inactive)	3.64 µM (inactive)	1.88 µM (inactive)	18.1 µM (inactive)	15.1 µM (inactive)	1.65 µM (inactive)	8.2 µM (inactive)	21.3 µM (inactive)	3.18 µM (inactive)	4.54 µM (inactive)	3.46 µM (inactive)	14.7 µM (inactive)
C=C1Oc2nc3ccccc3c(=O)n2C1(C)C	> 100 µM (inactive)	> 100 µM (inactive)	> 100 µM (inactive)	> 100 µM (inactive)	> 100 µM (inactive)	> 100 µM (inactive)	> 100 µM (inactive)	> 100 µM (inactive)	> 100 µM (inactive)		> 100 µM (inactive)	> 100 µM (inactive)	> 100 µM (inactive)	> 100 µM (inactive)	> 100 µM (inactive)					
CCOC(=O)/C(=C/c1ccc[nH]1)P(=O)(OCC)OCC	> 100 µM (inactive)	> 100 µM (inactive)	> 100 µM (inactive)	> 100 µM (inactive)	> 100 µM (inactive)	> 100 µM (inactive)	> 100 µM (inactive)	> 100 µM (inactive)	> 100 µM (inactive)	> 100 µM (inactive)	94.2 µM (inactive)	> 100 µM (inactive)	> 100 µM (inactive)	> 100 µM (inactive)	> 100 µM (inactive)					
COc1c2c(nc3ccccc13)-c1cc3c(c(=O)n1C2)COC(=O)C3(O)CC(=O)N1CCOCC1 (stereo not given)	15.4 µM (inactive)	26.8 µM (inactive)	3.79 µM (inactive)	40.4 µM (inactive)	32.4 µM (inactive)	3.13 µM (inactive)	4.85 µM (inactive)	13.9 µM (inactive)	18 µM (inactive)	0.23 µM (active)	9.25 µM (inactive)	11.4 µM (inactive)	46.1 µM (inactive)	0.664 µM (active)	10.5 µM (inactive)		21.1 µM (inactive)	69.7 µM (inactive)	18.7 µM (inactive)	3.63 µM (inactive)
COc1ccc(OC)c(/C=C/NC=O)c1	> 100 µM (inactive)	> 100 µM (inactive)	> 100 µM (inactive)	> 100 µM (inactive)	> 100 µM (inactive)	> 100 µM (inactive)	> 100 µM (inactive)	> 100 µM (inactive)	> 100 µM (inactive)	22 µM (inactive)	> 100 µM (inactive)	> 100 µM (inactive)	> 100 µM (inactive)	> 100 µM (inactive)	> 100 µM (inactive)		> 100 µM (inactive)			
